What was measured:
[1] = cited from earlier work
curdlan-treated SKG mice [2] = test: Curdlan-treated SKG mouse model of SpA: clinical scores, histopathology, microCT; type: in vivo
Method: (§1) Methods: Curdlan (β-glucan) or MIF-plasmid (mini-circle) treated SKG mice (8-10 weeks) were used as SpA mouse models. The expression of MIF in serum or tissues was measured by ELISA, quantitative PCR (qPCR), western blotting, immunohistochemistry (IHC) and/or immunofluorescence (IF). MIF knockout (KO) SKG mice were generated as MIF deficiency mice. MIF inhibitor (MIF098) was used to block the function of MIF in SpA mouse models to assess the therapeutic or prophylactic effects in a curdlan-treated SpA mouse model. Populations of immunological cells were assessed by flow cytometry. Anti-Gr-1 monoclonal antibody (mAb) or isotype control mAb was used to block the function of neutrophils or monocytes. Clinical scores, histopathology and microCT imaging were used to assess the severity of inflammation in the various tissues of the mouse models.
#1. Animal model, treatments and clinical scoring: Female and male SKG mice (age 8-10 weeks) were injected with PBS, curdlan (3 mg/mouse, i.p.), MIF-plasmid (EEV, 5 μg/mouse, i.v., from systemic biosciences), or control-plasmid (5 μg/mouse, i.v., from systemic biosciences) to induce SpA phenotype and weekly observed the clinical manifestations of inflammation and NBFs over 8 weeks (n=10 mice/group). C57BL/6 and BALB/c mice (age 8-10 weeks) were also subjected to MIF- or control-plasmid injection to observe clinical symptoms. MIF- or control plasmid was administered by HDD tail vein injection as previously described (11). We also generated Mif−/− (KO) SKG mice by crossing SKG mice and BALB/c Mif KO mice (22).
(§2) After 1 or 4 weeks post-curdlan treatment, we injected MIF antagonist (MIF098; 40 mg/kg, twice/day, i.p.) (23) or control vehicle [PEG400 (Sigma, cat#91893) and HP-P-P-CD (Sigma, cat#C0926)] to assess the prophylactic and therapeutic effects of the MIF098 on the inflammation and NBFs in the SpA mouse model until 8 weeks post-curdlan treatment. Anti-mouse Gr-1 antibody (100 μg/mouse, Life Technologies) or isotype IgG monoclonal antibodies (100 μg/mouse, Life Technologies) were administered on day 3, 6, 9, 12 and 15 post-curdlan treatment.
(§3) Clinical scores for SpA-related manifestations were assessed based on severity scales (Table 1); arthritis, maximum 6 points; dermatitis, maximum 2 points; blepharitis, maximum 2 points). The scores were evaluated at least 2 independent scorers in a blinded fashion and final scores were the average of the observations. At the endpoint, ankle joints, spleen and lymph nodes (PLNs and MLNs) were dissected for FACS, one ankle was dissected prior to storage in RNA later for qPCR unless used for FACS, the other ankle was kept intact and fixed in 10% neutral buffered formalin for histopathological assessments. The upper tail spine, pelvis, eyes and ileum were dissected and fixed in 10% neutral buffered formalin for histopathology. For ankle digestion, skin was peeled off and toes (at distal phalanges) and tibia (˜0.5 cm above tibia) were cut off. After flushing bone marrow, the tissue was digested with RPMI culture media containing hyaluronidase and collagenase type VIII for 1 h at 37° C. in incubator. Following passing through 70 μm of cell strainer and RBC lysis treatment, cells were centrifuged and used for FACS analysis.
Ankle joints, tail spine, and pelvis were fixed in 10% neutral buffered formalin for at least 72 h, decalcified in 10% EDTA (BioShop) for 14-21 days and embedded in paraffin. Eyes and ileum were fixed in formalin for at least 72 h without decalcification. Serial sections (4 μm) were stained with hematoxylin and eosin (H&E; Fisher Scientific). To assess endochondral ossification, safranin O/ fast green staining was also applied to NBF in distal tibia as previously described (24, 25). For histological scores, multiple sections (three sections approximately 40-80 μm apart) per joint sample were evaluated by 2 independent scorers in a blinded fashion according to histological assessments as previously reported (11, 24). […]

curdlan-treated SKG mice [3] = test: Flow cytometry of immune cell populations from curdlan-treated SKG mice; type: in vivo, mouse
Method: as §1, §2, §3
For all panels, single cell suspensions were first stained with a fixable live dead stain (L/D NIR, Invitrogen, cat#L10119) as directed by the manufacturers. Cells were blocked with FcX (BioLegend, cat#101320) or Monocyte Blocker (BioLegend, cat#426102) prior to staining with surface antibodies. For experiments in which transcription factors were stained, cells were fixed and permeabilized with True-Nuclear kit (BioLegend, cat#424401) as directed. For experiments in which cytokines were stained, cells were fixed with a PFA buffer and permeabilized with intracellular staining buffer (BioLegend, cat#420801 and cat#421002) as indicated. Brefeldin A (BioLegend, cat#420601) with or without PMA/ionomycin (BioLegend, cat#423302) were used for in vitro stimulations to detect intracellular cytokines. Data were acquired on LSR II or Canto II (BD) and analyzed with FlowJo (version 10.6, Becton Dickinson).

human Tregs = test: Th17 acquisition assay in human Tregs and cytokine measurement; type: cell-based; settings: rhMIF 50 ng/ml, 12 days
Method: Human naïve CD4+ T cells and Tregs (CD4+CD25+CD127low) were isolated from PBMCs of healthy male controls without any history of back pain, arthritis, and joint injuries (age: 18-40, n=4 individuals in total) using the human naïve T cells isolation kit (STEM CELL, Cat #19555) and Treg isolation kit (STEM CELL, cat#18063), respectively. Isolated human Tregs (3×10^4 cells/well) were cultured in the complete IMDM culture media containing ImmunoCult™ Human CD3/CD28/CD2 T Cell Activator (25 μl/ml, STEMCELL, cat#10970), and rhIL-2 (100 IU/ml, BioLegend, cat#589102) alone or in combination with or without rhMIF (50 ng/ml, BioLegend, cat#599404), rhIL-1β (25 ng/ml, BioLegend, cat#579402) and rhIL-23 (100 ng/ml, BioLegend, cat#574102) for 12 days. Each culture media was replaced ever 2-3 days. The cells were used for further analysis.
Released cytokine in cell culture supernatant on day 12 was quantified using the LEGENDplex Human Th17 Cytokine Panel (BioLegend, cat#741032) according to the manufacturer's instructions.
For all panels, single cell suspensions were first stained with a fixable live dead stain (L/D NIR, Invitrogen, cat#L10119) as directed by the manufacturers. Cells were blocked with FcX (BioLegend, cat#101320) or Monocyte Blocker (BioLegend, cat#426102) prior to staining with surface antibodies. For experiments in which transcription factors were stained, cells were fixed and permeabilized with True-Nuclear kit (BioLegend, cat#424401) as directed. […] Data were acquired on LSR II or Canto II (BD) and analyzed with FlowJo (version 10.6, Becton Dickinson).
The concentration of MIF in SKG mice or culture supernatant media and the concentration of IL-17A in the human Tregs culture media were assessed by mouse MIF ELISA kit (LEGEND MAX™ Mouse MIF ELISA Kit, BioLegend, cat# 44107) and Human IL-17A ELISA kit (LEGEND MAX™ Human IL-17A ELISA Kit, BioLegend, cat# 433917) were used, respectively. Samples were analyzed according to the manufacture's instruction.

[4] = prophylactic: MIF098 40 mg/kg i.p. twice daily from 1 to 8 weeks post-curdlan, female SKG mice, vs CTL
[5] = SKG SpA mouse model, summary of Example 1
[6] = prophylactic MIF098, 8 weeks post-curdlan, vs CTL

Molecule: CC(C)C(=O)c1c(C(C)C)nn2ccccc12 [Ibudilast, 2-methyl-1-(2-propan-2-ylpyrazolo[1,5-a]pyridin-3-yl)propan-1-one]
- toxicity in clinical trials ([1]; clinical trials for asthma and multiple sclerosis): minimal toxicity
- safety ([1]; single 30-mg dose followed by 14 days of 30 mg b.i.d, healthy adults): generally safe

Molecule: C=C1Cc2ccc(C)cc2C1Cc1cccc(C)c1 (stereo not shown) [MIF098]
- SpA clinical manifestations (colitis, psoriasis, arthritis in axial and peripheral joints) (curdlan-treated SKG mice [2]; SKG SpA mouse model, MIF blockade): dramatically suppressed or attenuated
- inflammation in the ankle, tail spine, sacroiliac joints, and ileum (histology and histopathology scoring) (curdlan-treated SKG mice [2]; prophylactic, 8 weeks post-curdlan, vs CTL): Lower severity of inflammation
- new bone formation (NBF), microCT imaging and histological assessments (curdlan-treated SKG mice [2]; prophylactic, distal tibia, 8 weeks post-curdlan, vs CTL): did not display an evident NBF
- severity of blepharitis (clinical score) (curdlan-treated SKG mice [2]; [4]): reduced severity
- severity of psoriasis-like dermatitis (clinical score) (curdlan-treated SKG mice [2]; [4]): reduced severity
- severity of arthritis (clinical score) (curdlan-treated SKG mice [2]; prophylactic: MIF098 40 mg/kg i.p. twice daily from 1 to 8 weeks post-curdlan, female SKG mice, vs vehicle control (CTL)): reduced severity
- severity of psoriasis-like dermatitis (curdlan-treated SKG mice [2]; therapeutic: MIF098 from 4 weeks to 8 weeks post-curdlan, female SKG mice, vs CTL): reduced the severity
- new bone formation (NBF), histological assessments (curdlan-treated SKG mice [2]; therapeutic: MIF098 from 4 weeks to 8 weeks post-curdlan, vs CTL): reduced
- severity of arthritis (curdlan-treated SKG mice [2]; therapeutic: MIF098 injected from 4 weeks to 8 weeks post-curdlan, female SKG mice, vs CTL): reduced the severity
- populations of Th17 (curdlan-treated SKG mice [3]; [5]): decreased populations of Th17
- regulatory T (Treg) cells (curdlan-treated SKG mice [3]; [5]): increased
- RORγt+Foxp3+CD4+ T cells (curdlan-treated SKG mice [3]; curdlan-treated SKG mice, 8 weeks post-curdlan, vs CTL): decreased
- frequency of ILC3s in PLNs (curdlan-treated SKG mice [3]; [6]): significantly deceased
- frequency of Th17 lineage cells in PLNs (curdlan-treated SKG mice [3]; [6]): significantly deceased
- percentage of Th17 lineage cells in spleen (curdlan-treated SKG mice [3]; [6]): no significant difference
- percentage of Tregs (PLNs) (curdlan-treated SKG mice [3]; [6]): significant increase
- percentage of Tregs in spleen (curdlan-treated SKG mice [3]; [6]): significant increase
- percentage of inflammatory macrophages in the ankle joints (curdlan-treated SKG mice [3]; [6]): no difference between groups
- percentage of patrolling macrophages in the ankle joints (curdlan-treated SKG mice [3]; [6]): increase
- ILC2s (curdlan-treated SKG mice [3]; prophylactic MIF098, curdlan-treated SKG mice, vs CTL): remarkably increased

B1: rhMIF: recombinant human MIF (BioLegend) used to stimulate human Tregs (protein, UniProt P14174 2-115, looked up)
Macrophage migration …: PMFIVNTNVPRASVPDGFLSELTQQLAQATGKPPQYIAVHVVPDQLMAFGGSSEPCALCSLHSIGKIGGAQNRSYSKLLCGLLAERLRISPDRVYINYYDMNAANVGWNNSTFA
- release of IL-6 (human Tregs): without increased release
- frequency of RORγt+CD4+ T cells from Tregs (human Tregs; in the presence of IL1β and IL23, vs without rhMIF): increased
- secretion of IL-17A into the culture media (human Tregs; vs control-treated Tregs): significantly higher

Reference: US20230404980A1, “METHODS OF TREATING SPONDYLOARTHRITIS OR SYMPTOMS THEREOF” (UNIVERSITY HEALTH NETWORK, priority 2020, published 2023)
